In one test the target is recombinant human GSK-3β (Homo sapiens, UniProt P49841). In words: Kinase Inhibition Assay (GSK-3β, 33P phosphoCREB peptide filter assay). The format is biochemical. The text has this:
An important in vitro test is the ability of the compound to inhibit the activity of the GSK-3β enzyme. This test is done according to a standard protocol. (See Fiol, et al, A Secondary Phosphorylation of CREB^341 at Ser^129 Is Required for the cAMP-Mediated Control of Gene Expression: A Role for Glycogen Synthase Kinase-3 in the Control of Gene Expression, J. Biol. Chem., 269, 32187-32193 (1994)).
The catalysis of the reaction:
(pS)YR+AT^33P→KRREIL(^33pS)RRP(pS)YR [measured]+ADP by GSK-3β is measured in a reaction mixture comprised of the following: 50 mM MOPS (4-morpholinepropanesulfonic acid) pH 7.0; 50 μM phosphoCREB peptide; 50 μM ATP; 0.5 μCi ATP[γ-^33P]; 12.5 mM MgCl2; 0.03% Triton-X; 4% DMSO; and 1 nM recombinant human GSK-3β. The reaction is initiated by the addition of enzyme. The final reaction volume is 100 μL. The reaction is allowed to proceed for 60 minutes at room temperature and is stopped by the addition of 75 μL of 10% phosphoric acid. To capture KRREIL(^33pS)RRP(pS)YR formed in the reaction and to remove unreacted AT^33P, 160 μL of the stopped reaction mixture is transferred to a pre-wetted (0.75% phosphoric acid) phosphocellulose microfiltration plate [Millipore Cat.# MAPH NOB 50] and after 90 minutes incubation on the plate, the stopped reaction mixture is passed through the filter using a Titertek Map Extractor. The filter containing the trapped KRREIL(^33pS)RRP(pS)YR is washed with 220 μL of 0.75% phosphoric acid. Filter plates are blotted to remove droplets from the underdrain. The underdrain is removed from the filter and the filter is placed into a clear plate liner (Wallac, Inc.). Added to each well is 100 μL of Microscint 20 (Packard).
After standing at least six hours (preferably overnight), the plates are counted in a Trilux scintillation counter (Wallac, Inc.). The ability of a compound to inhibit GSK-3β is determined by including various concentrations of the compound in the reaction mixture and comparing the signal produced to the signal produced in a reaction mixture without the compound.
The test yields the molar concentration of the test compound that produces a 50% inhibition of the GSK-3β enzyme activity.

The subject of test [1] is β-catenin in AG04160C FAD lymphoblast cells. Description: β-Catenin Protection Assay. Conditions: fold induction over basal β-catenin, 24 hours, concentration not given. The format is cell-based, human. As for the experimental part:
This test measures the fold induction over basal β-catenin and is performed according to standard protocols (Hedgepeth, C. M., Dev. Biol. 185, 82-91 (1997); Chen, G., et al., J. Neurochem., 72, 1327-1330 (1999); Hong, M., et al., J. Biol. Chem., 272, 25326-25332 (1997)).
The human familial Alzheimer's disease (FAD) presenilin-1 AG04160C lymphoblast cell line (Coriell Cell Repository, Camden, N.J.) is maintained as a suspension culture in RPMI 1640 (with L-Glutamine) supplemented with 10% fetal bovine serum and 1% penicillin-streptomycin in an atmosphere of 37° C. and 5% CO2. The AG04160C FAD lymphoblast cells are seeded in T-25 cm^2 flasks at 2.5 to 5.0×10^5 cells/ml in a total volume of 10 ml. Following 16-18 hours of growth, cells are treated with compound at concentrations of 0.1 μM, 1.0 μM, and 10 μM, and are incubated for an additional 24 hours. […] The total protein concentration in whole cell lysate samples is determined using the BCA method (Pierce). […] The β-catenin accumulation/stability is then quantified following densitometry analysis of protein bands. […]

A further test relates to 3T3-L1 adipocytes. In words: Glycogen Synthesis Assay (14C-glucose incorporation into glycogen). Type of test: cell-based. The following applies: 1 μM compound. The protocol: This test measures the increase in the production of glycogen both in the absence and in the presence of insulin in the cells. This test is done according to standard protocols. (See Berger and Hayes, A High-Capacity assay for Activators of Glucose Incorporation into Glycogen in L6 Muscle Cells, Analytical Biochemistry, 261, 159-163 (1998).)
Briefly, 3T3-L1 adipocytes are plated and differentiated in a 96-well plate at 25,000 cells/well. The plate is serum-starved overnight. The serum-starvation media is removed just prior to assay, and the plate is washed with 100 μl/well Krebs-Ringer-Hepes buffer (KRBH). The KRBH is removed and 50 μl of compound (twice the amount of the final concentration) is added to the assay plate. Next, 50 μl of ^14C-labeled glucose is added to the assay plate at 0.1 μCi/well. The plate is then incubated at 37° C. for 2 hours.
The plate is washed with 100 μL/well of PBS, and the cells are lysed with 75 μl/well of 1N NaOH. The plate is heated at 70° C. for 20 minutes. An aliquot (50 μl) of the supernatant is transferred from the assay plate to a Millipore FC filter plate containing 120 μl/well of ice-cold ethanol. The plate is allowed to stand for 2 hours at 4° C. to facilitate precipitation. The ethanol is removed from the filter plate via a vacuum manifold, and the plate is washed with 100 μL/well of ice-cold 70% ethanol. The plate was allowed to dry overnight, and 75 μl/well of Microscint-20 was added to the filter plate. The plate was then counted on a Packard Topcount.

For the next test, the system named is ZDF rats. Description: Glucose Lowering Assay. Type of test: in vivo, rat. Conditions: oral gavage once daily, relative to insulin. The protocol: This test measures the effect of the test compound on blood glucose and triglycerides relative to insulin. (See Eldar-Finkleman, et al, Expression and Characterization of Glycogen Synthase Kinase-3 Mutants and Their Effect on Glycogen Synthase Activity in Intact Cells, Proc. Nat. Acad. Sci., 93, 10228-10233 (1996).)
ZDF rats (Charles River, Inc.) at six weeks of age are housed individually with free access to food and water. Rats are dosed with drug once daily by oral gavage, with the compound prepared as a suspension in 1% caboxymethylcellusolve/0.25% Tween 80 (CMC-Tween). Vehicle controls are dosed with CMC-Tween only. The duration of study varied according to the protocol used, with acute dosing studies lasting one day and dose escalation studies lasting seven days. Body weights and food consumption measurements are also performed once a week for seven-day studies. For measurement of blood glucose and triglycerides, blood samples of 600 μl are collected by the tail snip method. (The tail snip for blood sampling is as follows: 1-2 mm of the tail is snipped with a sharp blade. After collection of blood, a scab forms at the site of wound. This scab is removed and the tail is gently massaged for other subsequent bleedings.) Glucose and triglyceride determinations are performed on a Hitachi 912 metabolic analyzer, with a kit utilizing the Trinder method. […]

Setting [2] is: Table II, 1 nM recombinant human GSK-3β, 50 μM ATP, 60 minutes at room temperature, read-out: GSK-3β IC50.

pIC50: −log10 of the molar value. Structures can show the parent of a compound that is named as a salt. Where two headings read alike, the source gives them in different places.

Chain of recombinant human GSK-3β (P49841 whole entry): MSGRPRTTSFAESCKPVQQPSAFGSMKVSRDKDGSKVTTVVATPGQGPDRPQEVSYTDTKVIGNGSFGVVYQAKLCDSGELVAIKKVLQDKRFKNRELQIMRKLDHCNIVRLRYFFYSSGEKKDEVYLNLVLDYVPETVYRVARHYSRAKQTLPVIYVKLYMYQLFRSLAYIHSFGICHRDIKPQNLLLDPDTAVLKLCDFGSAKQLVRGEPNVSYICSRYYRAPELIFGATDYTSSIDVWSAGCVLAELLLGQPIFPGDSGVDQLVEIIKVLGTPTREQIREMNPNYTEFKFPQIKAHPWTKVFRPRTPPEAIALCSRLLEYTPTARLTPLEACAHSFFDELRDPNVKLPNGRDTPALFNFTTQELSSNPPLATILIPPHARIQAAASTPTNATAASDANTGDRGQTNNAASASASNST

Turning to `Cn1ccc2c(C3=C(c4cn(CCCO)c5ccccc45)C(=O)NC3=O)cccc21` [Example 1, 3-(1-Methyl-1H-indol-4-yl)-4-[1-(3-hydroxypropyl)-1H-indol-3-yl]pyrrole-2,5-dione], at recombinant human GSK-3β (setting [2]), the pIC50 was 6.76.
Regarding `COc1cc(C2=C(c3cn(CCN4CCN(C)CC4)c4ccccc34)C(=O)NC2=O)c2occc2c1` [Example 100, 3-(5-Methoxybenzofur-7-yl)-4-{1-[2-(4-methylpiperazin-1-yl)ethyl]-1H-indol-3-yl}pyrrole-2,5-dione], at recombinant human GSK-3β, the pIC50 is 6.84.
For the molecule `CCN(CC)CCCc1cccc2c(C3=C(c4cccc5ccoc45)C(=O)NC3=O)cn(C)c12` [Example 102, 3-(Benzofur-7-yl)-4-[7-(3-diethylaminopropyl)-1-methyl-1H-indol-3-yl]pyrrole-2,5-dione], the pIC50 on recombinant human GSK-3β (setting [2]) is 6.90.
On the same count and under the same terms, the result for `CCN(CC)CCCOc1ccc2c(c1)c(C1=C(c3cc(F)cc4ccoc34)C(=O)NC1=O)cn2C(C)C` [Example 114, 3-(5-Fluorobenzofur-7-yl)-4-[5-(3-diethylaminopropoxy)-1-isopropyl-1H-indol-3-yl]pyrrole-2,5-dione hydrochloride] reads 6.88; that for `COc1ccc(C2=C(c3cn(CCCCN(C)C)c4ccccc34)C(=O)NC2=O)c2occc12` [Example 118], 7.15.
For the molecule `Cl.Cn1cc(C2=C(c3cccc4ccoc34)C(=O)NC2=O)c2cc(OCCNCC3CC3)ccc21` [Example 119, 3-(Benzofur-7-yl)-4-{5-[2-(cyclopropylmethylamino)ethoxy]-1-methyl-1H-indol-3-yl}pyrrole-2,5-dione hydrochloride], the pIC50 on recombinant human GSK-3β (setting [2]) is 8.02. Besides, the “β-Catenin (fold increase)” value in test [1] is 4.9× fold. For the same molecule, in the test with 3T3-L1 adipocytes, the “Glycogen Synthesis (fold increase at 1 μM) in absence of insulin” value is given as 2.82× in absence of fold and the “Glycogen Synthesis (fold increase at 1 μM) in presence of insulin” value is 2.13× in presence of fold.
For the molecule `Cn1cc(C2=C(c3ccc(O)c4ccoc34)C(=O)NC2=O)c2ccccc21` [Example 135, 3-(4-Hydroxybenzofur-7-yl)-4-(1-methyl-1H-indol-3-yl)pyrrole-2,5-dione], the pIC50 at recombinant human GSK-3β (setting [2]) was 7.26.
Regarding `O=C1NC(=O)C(c2cccc3ccoc23)=C1c1cn(C2CCNCC2)c2ccccc12` [Example 139, 3-(Benzofur-7-yl)-4-[1-(piperidin-4-yl)-1H-indol-3-yl]pyrrole-2,5-dione], on recombinant human GSK-3β (setting [2]), the pIC50 is 8.24.
For `CC(C)CN[C@H]1CC[C@H](n2cc(C3=C(c4cccc5ccoc45)C(=O)NC3=O)c3c(F)cccc32)CC1` [Example 150, 3-(Benzofur-7-yl)-4-[4-fluoro-1-(4-trans-isobutylaminocyclohexyl)-1H-indol-3-yl]pyrrole-2,5-dione hydrochloride], the pIC50 at recombinant human GSK-3β (setting [2]) is 7.97. In addition, in the test on ZDF rats, the “Glucose Lowering (percent increase vs. effect of insulin)” value was 58%. For the same molecule, in the test on 3T3-L1 adipocytes, the “Glycogen Synthesis (fold increase at 1 μM) in absence of insulin” value is given as 2.97× in absence of fold and the “Glycogen Synthesis (fold increase at 1 μM) in presence of insulin” value is given as 3.92× in presence of fold.

By pIC50 is commonly meant the IC50 on a negative log10 scale, so that one unit is a factor of ten.
